A short description of the series: Example 10: tacrolimus tissue, plasma, rectal and GI content pharmacokinetics, oral vs intra-cecal ingestible device. On the set-up: species or system Yorkshire-Cross farm swine. The following applies: female, Yorkshire-Cross, swine, in vivo, 0.09 mg/kg. As for the experimental part:
The primary objective of this study was to compare the tissue, plasma, rectal sample, and GI content pharmacokinetics of tacrolimus through oral versus intra-cecal ingestible device delivery in normal Yorkshire-Cross farm swine.
No further randomization procedure was employed.
Animals in Group 1 received an ingestible device containing 0.8 mL of vehicle solution (80% alcohol, 20% HCO-60). Animals in Group 2 received orally […] liquid formulation of tacrolimus at 4 mg/0.8 mL per animal (Prograf: 5 mg/mL). Animals in Group 3 received intra-cecally an ingestible device containing tacrolimus at 1 mg in 0.8 mL per ingestible device. […]
Approximately 200-400 mg of rectal content were collected, if available, with a fecal swab (Copan Diagnostics Nylon Flocked Dry Swabs, 502CS01). The fecal swab was pre-weighed and weighed after collection in the collection tube (Sterile Tube and Cap No Media, PFPM913S), and the sample weight was recorded. […]
For tissue necropsy, small intestine fluid and cecal fluid were collected separately from all the animals into two separate square plastic bottles, and stored at −20° C. The length and diameter of the cecum and the colon was measured from one animal in each group and recorded for reference. […] All samples were weighed, and the tissue sample weights were recorded. […]

As for `C=CC[C@@H]1/C=C(\C)C[C@H](C)C[C@H](OC)[C@H]2O[C@@](O)(C(=O)C(=O)N3CCCC[C@H]3C(=O)O[C@H](/C(C)=C/[C@@H]3CC[C@@H](O)[C@H](OC)C3)[C@H](C)[C@@H](O)CC1=O)[C@H](C)C[C@@H]2OC` [tacrolimus], the concentration at 12 h turned out to be 4.38 ± 0.516 ng/mL.

These data come from patent US20230312700A1, “TREATMENT OF A DISEASE OF THE GASTROINTESTINAL TRACT WITH A TNF INHIBITOR” (Progenity, Inc., priority 2018, published 2023).
